Consider 27 molecules from US20250195530A1, “POLQ INHIBITORS” (ASTRAZENECA AB, priority 2022, published 2025).

In this test the test system is DLD-1 BRCA2−/− cells. The experiment in a line: Homologous recombination synthetic lethal inhibition of proliferation, DLD-1 BRCA2-/- (Cell Titre Glo 3D). The class given is cell-based. Conditions: for IC50: Homo sapiens. The essentials:
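Isogenic DLD-1 pair; BRCA2−/− seeded 3,000 cells/mL and read day 12, wt seeded 1,500 cells/mL and read day 7. 10-pt titration (top 10 μM, 3-fold), re-fed with compound day 6, 37 °C/5% CO2. CTG 3D endpoint; IC50 at 50% signal loss.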

Where [1] appears, read: DLD-1, first proliferation column (c5), taken as DLD-1 BRCA2-/-, read-out: POLQ PD Prolif Lumin (converted).
Where [2] appears, read: DLD-1, first proliferation column (c5), DLD-1 BRCA2-/-, read-out: POLQ PD Prolif Lumin (converted).
Setting [3] is: DLD-1, DLD-1 BRCA2-/- proliferation, column head only partly shown, read-out: POLQ PD Prolif Lumin (converted).
[4] abbreviates: DLD-1, DLD-1 BRCA2 −/− cells, mean, read-out: POLQ PD Prolif Lumin BRCA2 −/− mean pIC50 (converted).

SMILES strings stand for the structures. Where two headings read alike, the source gives them in different places.

As to `Cc1ccnc(Cn2c(-c3ccc(OCC(=O)NC4CC4)cc3Cl)nc3c(OC4(C)CC4)ncnc32)c1` [Example T318, 2-(3-chloro-4-(6-(1-methylcyclopropoxy)-9-((4-methylpyridin-2-yl)methyl)-9H-purin-8-yl)phenoxy)-N-cyclopropylacetamide], the IC50 under setting [1] is 398 nM. As to `Cc1ccnc(Cn2c(-c3ccc(OCC4(O)COC4)cc3Cl)nc3c(OC4(C)CC4)ncnc32)c1` [Example T200, 3-((3-chloro-4-(6-(1-methylcyclopropoxy)-9-((4-methylpyridin-2-yl)methyl)-9H-purin-8-yl)phenoxy)methyl)oxetan-3-ol], under setting [2], the IC50 was 316 nM. In the case of `Cc1ccnc(Cn2c(-c3ccc(CC(=O)NCCCO)cc3Cl)nc3c(OC4(C)CC4)ncnc32)c1` [Example T370, 2-(3-chloro-4-(6-(1-methylcyclopropoxy)-9-((4-methylpyridin-2-yl)methyl)-9H-purin-8-yl)phenyl)-N-(3-hydroxypropyl)acetamide], the IC50 under setting [1] was 1000 nM. On the same count and under the same terms, the same measure for `CNC(=O)N1CC(Oc2ccc(-c3nc4c(OC5(C)CC5)ncnc4n3Cc3cc(C)ccn3)c(Cl)c2)C1` [Example T343, 3-(3-chloro-4-(6-(1-methylcyclopropoxy)-9-((4-methylpyridin-2-yl)methyl)-9H-purin-8-yl)phenoxy)-N-methylazetidine-1-carboxamide]: 398 nM. For the molecule `C[C@@H](COc1cccc(-c2nc3c(OC4(C)CC4)ncnc3n2Cc2cccc(Cl)c2)c1Cl)C(=O)O` [Example T160, (S)-3-(2-chloro-3-(9-(3-chlorobenzyl)-6-(1-methylcyclopropoxy)-9H-purin-8-yl)phenoxy)-2-methylpropanoic acid], the IC50 under setting [2] was 200 nM.

On to `CCNC(=O)Cc1ccc(-c2nc3c(OC4(C)CC4)ncnc3n2Cc2cc(C)ccn2)c(Cl)c1` [Example T213, 2-(3-chloro-4-(6-(1-methylcyclopropoxy)-9-((4-methylpyridin-2-yl)methyl)-9H-purin-8-yl)phenyl)-N-ethylacetamide], for which, under setting [3], the IC50 is 251 nM. `CNC(=O)COc1ccc(-c2nc3c(OC4(C)CC4)ncnc3n2Cc2cc(C)ccn2)c(Cl)c1` [Example T118, 2-(3-chloro-4-(6-(1-methylcyclopropoxy)-9-((4-methylpyridin-2-yl)methyl)-9H-purin-8-yl)phenoxy)-N-methylacetamide]: the IC50 under setting [2] was 251 nM. For `CC1(Oc2ncnc3c2nc(-c2ccc(CCCCC(=O)O)cc2Cl)n3Cc2ccccc2C#N)CC1` [Example U20, 5-(3-chloro-4-(9-(2-cyanobenzyl)-6-(1-methylcyclopropoxy)-9H-purin-8-yl)phenyl)pentanoic acid], where the note is “DLD-1, DLD-1 BRCA2 −/−, mean, read-out: POLQ PD Prolif Lumin BRCA2 −/− mean pIC50 (converted)”, the IC50 was 251 nM. Regarding `CC[C@@H](O)CNC(=O)c1ccc(-c2nc3c(OC4(C)CC4)ncnc3n2Cc2cc(C)ccn2)c(Cl)c1` [Example T365, (R)-3-chloro-N-(2-hydroxybutyl)-4-(6-(1-methylcyclopropoxy)-9-((4-methylpyridin-2-yl)methyl)-9H-purin-8-yl)benzamide], the IC50 under setting [1] is 794 nM. In the case of `Cc1ccnc(Cn2c(-c3ccc(CC(=O)N4C5CNCC4C5)cc3Cl)nc3c(OC4(C)CC4)ncnc32)c1` [Example T557, 1-(3,6-diazabicyclo[3.1.1]heptan-6-yl)-2-(3-chloro-4-(6-(1-methylcyclopropoxy)-9-((4-methylpyridin-2-yl)methyl)-9H-purin-8-yl)phenyl)ethan-1-one], the IC50 under setting [2] was 6310 nM. The same measure, in the same setting: under `Cc1ccnc(Cn2c(-c3ccc(OCCCF)cc3Cl)nc3c(OC4(C)CC4)ncnc32)c1` [Example T108, 8-(2-chloro-4-(3-fluoropropoxy)phenyl)-6-(1-methylcyclopropoxy)-9-((4-methylpyridin-2-yl)methyl)-9H-purine] stands 126 nM. As for `COC(=O)NCCOc1ccc(-c2nc3c(OC4(C)CC4)ncnc3n2Cc2cc(C)ccn2)c(Cl)c1` [Example T228, methyl (2-(3-chloro-4-(6-(1-methylcyclopropoxy)-9-((4-methylpyridin-2-yl)methyl)-9H-purin-8-yl)phenoxy)ethyl)carbamate], the IC50 under setting [3] was 126 nM. In the case of `CC1(Oc2ncnc3c2nc(-c2ccc(C(=O)O)cc2Cl)n3Cc2cccc(Cl)c2)CC1` [Example T11, 3-chloro-4-(9-(3-chlorobenzyl)-6-(1-methylcyclopropoxy)-9H-purin-8-yl)benzoic acid], under setting [4], the IC50 is 794 nM.

Turning to `C#CCNC(=O)c1ccc(-c2nc3c(OC4(C)CC4)ncnc3n2Cc2cc(C)ccn2)c(Cl)c1` [Example T152, 3-chloro-4-(6-(1-methylcyclopropoxy)-9-((4-methylpyridin-2-yl)methyl)-9H-purin-8-yl)-N-(prop-2-yn-1-yl)benzamide], the IC50 under setting [2] is 398 nM. Still for that read-out and setting: under `Cc1ccnc(Cn2c(-c3ccc(OCC(=O)N4CCC(F)CC4)cc3Cl)nc3c(OC4(C)CC4)ncnc32)c1` [Example T553, 2-(3-chloro-4-(6-(1-methylcyclopropoxy)-9-((4-methylpyridin-2-yl)methyl)-9H-purin-8-yl)phenoxy)-1-(4-fluoropiperidin-1-yl)ethan-1-one] stands 200 nM. `CC1(Oc2ncnc3c2nc(-c2ccc(OCCN4C5CCC4CNC5)cc2Cl)n3Cc2ccccc2)CC1` [Example T605, 8-(4-(2-(3,8-diazabicyclo[3.2.1]octan-8-yl)ethoxy)-2-chlorophenyl)-9-benzyl-6-(1-methylcyclopropoxy)-9H-purine]: the IC50 (DLD-1, first proliferation column, DLD-1 BRCA2-/-, read-out: POLQ PD Prolif Lumin (converted)) was 158 nM. On to `Cc1ccnc(Cn2c(-c3ccc(OCCN(C)C)cc3Cl)nc3c(OC4(C)CC4)nccc32)c1` [Example T381, 2-(3-chloro-4-(4-(1-methylcyclopropoxy)-1-((4-methylpyridin-2-yl)methyl)-1H-imidazo[4,5-c]pyridin-2-yl)phenoxy)-N,N-dimethylethan-1-amine], for which the IC50 under setting [1] is 251 nM.

With `Cc1ccnc(Cn2c(-c3ccc(OCC(=O)NCC(F)(F)F)cc3Cl)nc3c(OC4(C)CC4)ncnc32)c1` [Example T154, 2-(3-chloro-4-(6-(1-methylcyclopropoxy)-9-((4-methylpyridin-2-yl)methyl)-9H-purin-8-yl)phenoxy)-N-(2,2,2-trifluoroethyl)acetamide], the IC50 under setting [2] is 200 nM. In the case of `Cc1ccnc(Cn2c(-c3ccc(OCC(=O)N(C)[C@H]4C[C@@H](O)C4)cc3Cl)nc3c(OC4(C)CC4)ncnc32)c1` [Example T582, 2-(3-chloro-4-(6-(1-methylcyclopropoxy)-9-((4-methylpyridin-2-yl)methyl)-9H-purin-8-yl)phenoxy)-N-((1s,3s)-3-hydroxycyclobutyl)-N-methylacetamide], the “POLQ PD Prolif Lumin” value (DLD-1 BRCA2-/-) turned out to be 6.2.

Consider `CC1(Oc2ncnc3c2nc(-c2ccc(OCCCc4nnn[nH]4)cc2Cl)n3Cc2cccc(Cl)c2)CC1` [Example T164, 8-(4-(3-(1H-tetrazol-5-yl)propoxy)-2-chlorophenyl)-9-(3-chlorobenzyl)-6-(1-methylcyclopropoxy)-9H-purine], for which the IC50 under setting [2] was 794 nM. On to `Cc1ccnc(Cn2c(-c3ccc(C(=O)N4C[C@@H]5C[C@H]4CO5)cc3Cl)nc3c(OC4(C)CC4)ncnc32)c1` [Example T416, ((1S,4S)-2-oxa-5-azabicyclo[2.2.1]heptan-5-yl)(3-chloro-4-(6-(1-methylcyclopropoxy)-9-((4-methylpyridin-2-yl)methyl)-9H-purin-8-yl)phenyl)methanone], for which the IC50 (DLD-1, proliferation, luminescence, taken as DLD-1 BRCA2-/-, read-out: POLQ PD Prolif Lumin (converted)) was 1580 nM. As to `CC1(Oc2ncnc3c2nc(-c2ccc(CC(N)=O)cc2Cl)n3Cc2nnc(C3CC3)o2)CC1` [Example T21, 2-(3-chloro-4-(9-((5-cyclopropyl-1,3,4-oxadiazol-2-yl)methyl)-6-(1-methylcyclopropoxy)-9H-purin-8-yl)phenyl)acetamide], the IC50 under setting [4] is above 10000 nM. Same read-out and setting: the same measure for `CNS(=O)(=O)c1ccc(-c2nc3c(OC4(C)CC4)ncnc3n2Cc2cc(C)ccn2)c(Cl)c1` [Example T30, 3-chloro-N-methyl-4-(6-(1-methylcyclopropoxy)-9-((4-methylpyridin-2-yl)methyl)-9H-purin-8-yl)benzenesulfonamide]: 631 nM. Regarding `Cc1ccnc(Cn2c(-c3ccc(C(=O)N4CC(F)C4)cc3Cl)nc3c(OC4(C)CC4)ncnc32)c1` [Example T153, (3-chloro-4-(6-(1-methylcyclopropoxy)-9-((4-methylpyridin-2-yl)methyl)-9H-purin-8-yl)phenyl)(3-fluoroazetidin-1-yl)methanone], the IC50 under setting [2] was 501 nM.

Consider `Cc1cnc(Cn2c(-c3ccc(OCCN4CC[C@@H](O)C4)cc3Cl)nc3c(OC4(C)CC4)ncnc32)s1` [Example T245, (R)-1-(2-(3-chloro-4-(6-(1-methylcyclopropoxy)-9-((5-methylthiazol-2-yl)methyl)-9H-purin-8-yl)phenoxy)ethyl)pyrrolidin-3-ol], for which the IC50 under setting [3] was 631 nM.

For `Cc1ccnc(Cn2c(-c3ccc(C(=O)N[C@@H]4CCOC4)cc3Cl)nc3c(OC4(C)CC4)ncnc32)c1` [Example T316, (R)-3-chloro-4-(6-(1-methylcyclopropoxy)-9-((4-methylpyridin-2-yl)methyl)-9H-purin-8-yl)-N-(tetrahydrofuran-3-yl)benzamide], the IC50 under setting [1] was 631 nM. On the same count and under the same terms, under `Cc1ccnc(Cn2c(-c3ccc(N4CCNC(=O)CC4)cc3Cl)nc3c(OC4(C)CC4)ncnc32)c1` [Example T339, 1-(3-chloro-4-(6-(1-methylcyclopropoxy)-9-((4-methylpyridin-2-yl)methyl)-9H-purin-8-yl)phenyl)-1,4-diazepan-5-one] stands 501 nM.
